# Results: patent US10376520B2, “Methods for the treatment of cardiovascular disorders” (Galapagos NV, priority 2015, dated 2019)
# Test system: RA patients
# Assay: [HDL] determination, Study 1 (RA patients, add-on to MTX)
# Format: in vivo, human
# Protocol: Double-blind, placebo-controlled add on study in subjects with moderately to severely active RA who have an inadequate response to methotrexate (MTX) (oral or parenteral).
# 595 subjects randomized to one of 6 dose regimens of Compound 1 (dosed as a [Compound 1:HCl:3H2O]) (3 dose levels administered either once or twice daily) or placebo on top of each subject's stable dose of MTX.
# Compound 1 (dosed as a [Compound 1:HCl:3H2O]) is dosed for twelve weeks once daily (q.d.) (50 mg, 100 mg or 200 mg) or twice daily (b.i.d.) (25 mg, 50 mg or 100 mg); or placebo.
# At Week 12, the subjects on placebo who have not achieved 20% improvement in swollen joint count (SJC66) and tender joint count (TJC68) are re-randomized automatically to receive Compound 1 (dosed as a [Compound 1:HCl:3H2O]) either at 100 mg q.d. or 50 mg b.i.d. doses in a blinded fashion; subjects on 50 mg q.d. who have not achieved 20% improvement in SJC66 and TJC68 will be assigned to 100 mg q.d. and subjects on 25 mg b.i.d. that have not achieved a 20% improvement in SJC66 and TJC68 will be assigned to 50 mg b.i.d. Subjects who switch treatment at week 12 are handled as if they discontinued at week 12 for the purpose of statistical analysis, whereas subjects in the other groups will maintain their randomized treatment until Week 24.
# This assay relies on a homogeneous enzymatic colorimetric test. In the presence of magnesium ions, dextran sulfate selectively forms water-soluble complexes with LDL, VLDL and chylomicrons which are resistant to PEG-modified enzymes.
# The cholesterol concentration of [HDL]-cholesterol is determined enzymatically by cholesterol esterase and cholesterol oxidase coupled with PEG to the amino groups (approx. 40%).
# In the presence of peroxidase, the hydrogen peroxide generated reacts with 4-amino-antipyrine and Sodium N-(2-hydroxy-3-sulfopropyl)-3,5-dimethoxyaniline (HSDA) to form a purple-blue dye. The color intensity of this dye is directly proportional to the cholesterol concentration and is measured photometrically.
# Human serum and plasma samples [HDL] determination was done on a Roche/Hitachi Cobas c 701/702 system which automatically calculate the analyte concentration of each sample. Samples containing precipitates are centrifuged before performing the assay.
# [1] = 2 x 50 mg b.i.d. (N = 85), week 12
# [2] = 2 x 100 mg b.i.d. (N = 84), week 1
# [3] = 2 x 100 mg b.i.d. (N = 84), week 2
# [4] = 2 x 100 mg b.i.d. (N = 84), week 4
# [5] = 2 x 100 mg b.i.d. (N = 84), week 8
# [6] = 2 x 100 mg b.i.d. (N = 84), week 12
# [7] = continued 25 mg b.i.d (N = 69), week 1
# [8] = continued 25 mg b.i.d (N = 69), week 2
# [9] = continued 25 mg b.i.d (N = 69), week 4
# [10] = continued 25 mg b.i.d (N = 69), week 8
# [11] = continued 25 mg b.i.d (N = 69), week 12
# [12] = continued 25 mg b.i.d (N = 69), week 16
# [13] = continued 25 mg b.i.d (N = 69), week 20
# [14] = continued 25 mg b.i.d (N = 69), week 24
# [15] = continued 50 mg b.i.d. (N = 85), week 1
# [16] = continued 50 mg b.i.d. (N = 85), week 2
# [17] = continued 50 mg b.i.d. (N = 85), week 4
# [18] = continued 50 mg b.i.d. (N = 85), week 8
# [19] = continued 50 mg b.i.d. (N = 85), week 12
# [20] = continued 50 mg b.i.d. (N = 85), week 16
# [21] = continued 50 mg b.i.d. (N = 85), week 20
# [22] = continued 50 mg b.i.d. (N = 85), week 24
# [23] = continued 50 mg q.d. (N = 63), week 1
# [24] = continued 50 mg q.d. (N = 63), week 2
structure (smiles),measurement,setting,value
"O=C(Nc1nc2cccc(-c3ccc(CN4CCS(=O)(=O)CC4)cc3)n2n1)C1CC1 [Compound 1, cyclopropanecarboxylic acid {5-[4-(1,1-dioxo-thiomorpholin-4-ylmethyl)-phenyl]-[1,2,4]triazolo[1,5-a]pyridin-2yl}-amide]",[HDL] Mean CFB - 12 weeks results,[1],0.10 mmol/L
same,[HDL] Mean percentage CFB - 12 weeks results,[1],9%
same,[HDL] Median CFB - 12 weeks results,[1],0.10 mmol/L
same,[HDL] Mean CFB - 12 weeks results,[2],0.12 mmol/L
same,[HDL] Mean percentage CFB - 12 weeks results,[2],9%
same,[HDL] Median CFB - 12 weeks results,[2],0.10 mmol/L
same,[HDL] Mean CFB - 12 weeks results,[3],0.20 mmol/L
same,[HDL] Mean percentage CFB - 12 weeks results,[3],15%
same,[HDL] Median CFB - 12 weeks results,[3],0.18 mmol/L
same,[HDL] Mean CFB - 12 weeks results,[4],0.25 mmol/L
same,[HDL] Mean percentage CFB - 12 weeks results,[4],20%
same,[HDL] Median CFB - 12 weeks results,[4],0.25 mmol/L
same,[HDL] Mean CFB - 12 weeks results,[5],0.26 mmol/L
same,[HDL] Mean percentage CFB - 12 weeks results,[5],21%
same,[HDL] Median CFB - 12 weeks results,[5],0.25 mmol/L
same,[HDL] Mean CFB - 12 weeks results,[6],0.30 mmol/L
same,[HDL] Mean percentage CFB - 12 weeks results,[6],23%
same,[HDL] Median CFB - 12 weeks results,[6],0.25 mmol/L
same,[HDL] Mean CFB - 24 weeks results,[7],0.01 mmol/L
same,[HDL] Mean percentage CFB - 24 weeks results,[7],0.74%
same,[HDL] Median CFB - 24 weeks results,[7],0.00 mmol/L
same,[HDL] Mean CFB - 24 weeks results,[8],0.05 mmol/L
same,[HDL] Mean percentage CFB - 24 weeks results,[8],3.77%
same,[HDL] Median CFB - 24 weeks results,[8],0.05 mmol/L
same,[HDL] Mean CFB - 24 weeks results,[9],0.07 mmol/L
same,[HDL] Mean percentage CFB - 24 weeks results,[9],5.04%
same,[HDL] Median CFB - 24 weeks results,[9],0.08 mmol/L
same,[HDL] Mean CFB - 24 weeks results,[10],0.08 mmol/L
same,[HDL] Mean percentage CFB - 24 weeks results,[10],6.08%
same,[HDL] Median CFB - 24 weeks results,[10],0.10 mmol/L
same,[HDL] Mean CFB - 24 weeks results,[11],0.07 mmol/L
same,[HDL] Mean percentage CFB - 24 weeks results,[11],5.78%
same,[HDL] Median CFB - 24 weeks results,[11],0.05 mmol/L
same,[HDL] Mean CFB - 24 weeks results,[12],0.08 mmol/L
same,[HDL] Mean percentage CFB - 24 weeks results,[12],6.74%
same,[HDL] Median CFB - 24 weeks results,[12],0.05 mmol/L
same,[HDL] Mean CFB - 24 weeks results,[13],0.05 mmol/L
same,[HDL] Mean percentage CFB - 24 weeks results,[13],5.08%
same,[HDL] Median CFB - 24 weeks results,[13],0.07 mmol/L
same,[HDL] Mean CFB - 24 weeks results,[14],0.08 mmol/L
same,[HDL] Mean percentage CFB - 24 weeks results,[14],6.59%
same,[HDL] Median CFB - 24 weeks results,[14],0.09 mmol/L
same,[HDL] Mean CFB - 24 weeks results,[15],0.03 mmol/L
same,[HDL] Mean percentage CFB - 24 weeks results,[15],4.29%
same,[HDL] Median CFB - 24 weeks results,[15],0.05 mmol/L
same,[HDL] Mean CFB - 24 weeks results,[16],0.12 mmol/L
same,[HDL] Mean percentage CFB - 24 weeks results,[16],9.99%
same,[HDL] Median CFB - 24 weeks results,[16],0.10 mmol/L
same,[HDL] Mean CFB - 24 weeks results,[17],0.13 mmol/L
same,[HDL] Mean percentage CFB - 24 weeks results,[17],11.50%
same,[HDL] Median CFB - 24 weeks results,[17],0.13 mmol/L
same,[HDL] Mean CFB - 24 weeks results,[18],0.13 mmol/L
same,[HDL] Mean percentage CFB - 24 weeks results,[18],11.21%
same,[HDL] Median CFB - 24 weeks results,[18],0.14 mmol/L
same,[HDL] Mean CFB - 24 weeks results,[19],0.10 mmol/L
same,[HDL] Mean percentage CFB - 24 weeks results,[19],9.27%
same,[HDL] Median CFB - 24 weeks results,[19],0.10 mmol/L
same,[HDL] Mean CFB - 24 weeks results,[20],0.13 mmol/L
same,[HDL] Mean percentage CFB - 24 weeks results,[20],11.13%
same,[HDL] Median CFB - 24 weeks results,[20],0.15 mmol/L
same,[HDL] Mean CFB - 24 weeks results,[21],0.15 mmol/L
same,[HDL] Mean percentage CFB - 24 weeks results,[21],12.24%
same,[HDL] Median CFB - 24 weeks results,[21],0.16 mmol/L
same,[HDL] Mean CFB - 24 weeks results,[22],0.11 mmol/L
same,[HDL] Mean percentage CFB - 24 weeks results,[22],10.05%
same,[HDL] Median CFB - 24 weeks results,[22],0.12 mmol/L
same,[HDL] Mean CFB - 24 weeks results,[23],0.02 mmol/L
same,[HDL] Mean percentage CFB - 24 weeks results,[23],1.75%
same,[HDL] Median CFB - 24 weeks results,[23],0.01 mmol/L
same,[HDL] Mean CFB - 24 weeks results,[24],0.07 mmol/L
same,[HDL] Mean percentage CFB - 24 weeks results,[24],4.74%
same,[HDL] Median CFB - 24 weeks results,[24],0.08 mmol/L
same,[HDL] Mean CFB - 24 weeks results,"continued 50 mg q.d. (N = 63), week 4",0.06 mmol/L
